± gives the standard deviation of the averaged measurements.
Key:
Settings in all cases: 72 h
ML-2 [1] = experiment: cell viability (% survival relative to DMSO control, bortezomib = 0%); higher = less cytotoxic
How it was run: (§1)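 Percent survival figures are means of duplicate wells. They were obtained by CellTiter-Glo luminescence after 10 AML and 5 CML cell lines spent 72 h at 37 °C with 5% CO2 in 384-well plates with compounds at 1, 10, 100, 1000 or 10000 nM. Vehicle was set to 100% and a 10 µM positive control to 0%.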

KCL-22 [2] = experiment: as above
How it was run: as §1

Mono-Mac-6 [3] = experiment: as above
How it was run: as §1

K-562 [4] = experiment: as above
How it was run: as §1

HEL [5] = experiment: as above
How it was run: as §1

SHI-1 [6] = experiment: as above
How it was run: as §1

BV-173 [7] = experiment: as above
How it was run: as §1

KG-1 [8] = experiment: as above
How it was run: as §1

HL-60 [9] = experiment: as above
How it was run: as §1

LAMA-84 [10] = experiment: as above
How it was run: as §1

MV4-11 [11] = experiment: as above
How it was run: as §1

HL-60 [12] = experiment: area under dose-response curve (viability, 1 nM-10 uM) (fraction (0-1)); higher = more sensitive
How it was run: (§2)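 In 384-well plates, the full library was rescreened in duplicate on HL-60 cells in RPMI 1640 with 10% FBS, at 1–10,000 nM in five tenfold concentrations, for 72 h at 37 °C, 5% CO2. Each run also held DMSO or 100 nM of one of three metabolic inhibitors. Viability was measured by CellTiter-Glo and normalised to DMSO wells and to wells with proteasome inhibitor, present at 10 μM. Any area under the curve comes from four-parameter log-logistic fitting with drc and PharmacoGx.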

ML-2 [13] = system: ML-2
How it was run: (§3)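 Fifteen myeloid leukaemia lines were incubated for 72 h at 37 °C with 5% CO2 across five tenfold doses from 1 to 10,000 nM, in duplicate. ATP luminescence was normalised to vehicle and to a positive control at 10 µM and fitted with a four-parameter log-logistic model. The IC50 came from these dose–response fits.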

KCL-22 [14] = system: KCL-22
How it was run: as §3

Mono-Mac-6 [15] = system: Mono-Mac-6
How it was run: as §3

MOLM-13 = system: MOLM-13
How it was run: as §3

K-562 [16] = system: K-562
How it was run: as §3

HEL [17] = system: HEL
How it was run: as §3

SHI-1 [18] = system: SHI-1
How it was run: as §3

BV-173 [19] = system: BV-173
How it was run: as §3

KG-1 [20] = system: KG-1
How it was run: as §3

THP-1 = system: THP-1
How it was run: as §3

HL-60 [21] = system: HL-60
How it was run: as §3

NOMO-1 = system: NOMO-1
How it was run: as §3

LAMA-84 [22] = system: LAMA-84
How it was run: as §3

KU-812 = system: KU-812
How it was run: as §3

MV4-11 [23] = system: MV4-11
How it was run: as §3

HL-60 [24] = experiment: cell viability (% survival relative to DMSO control); higher = less cytotoxic
How it was run: as §2

N#Cc1ccc(C2CCCc3cncn32)cc1 (stereo not drawn) [Fadrozole]
Settings | area under dose-response curve, co-treatment: AZD3965 100 nM | area under dose-response curve, co-treatment: DMSO vehicle | area under dose-response curve, co-treatment: GSK2194069 100 nM | area under dose-response curve, co-treatment: pictilisib 100 nM | cell viability, 1 nM [%] | cell viability, 10 nM [%] | cell viability, 100 nM [%] | cell viability, 1000 nM [%] | cell viability, 10000 nM [%]
BV-173 [7] | – | – | – | – | 103 | 95.3 | 95 | 116 | 106
HEL [5] | – | – | – | – | 106 | 95.1 | 93.5 | 96.9 | 111
HL-60 [9] | – | – | – | – | 108 | 91.7 | 88 | 85.9 | 99.2
HL-60 [12] | < 0.0301 | < 0.0301 | < 0.0301 | < 0.0301 | – | – | – | – | –
K-562 [4] | – | – | – | – | 95.8 | 97.9 | 95.8 | 101 | 109
KCL-22 [2] | – | – | – | – | 115 | 92.2 | 88.6 | 82.7 | 103
KG-1 [8] | – | – | – | – | 108 | 97.9 | 89.5 | 110 | 108
LAMA-84 [10] | – | – | – | – | 102 | 93.7 | 103 | 95.5 | 107
ML-2 [1] | – | – | – | – | 90.5 | 90.7 | 86.2 | 107 | 109
MV4-11 [11] | – | – | – | – | 109 | 96.4 | 95.9 | 93.2 | 98.1
Mono-Mac-6 [3] | – | – | – | – | 102 | 93.4 | 97.2 | 101 | 112
SHI-1 [6] | – | – | – | – | 113 | 95.3 | 101 | 95.8 | 102

Settings | IC50 (cell viability) [µM]
BV-173 [19] | > 10
HEL [17] | > 10
HL-60 [21] | > 10
K-562 [16] | > 10
KCL-22 [14] | > 10
KG-1 [20] | > 10
KU-812 | > 10
LAMA-84 [22] | > 10
ML-2 [13] | > 10
MOLM-13 | > 10
MV4-11 [23] | > 10
Mono-Mac-6 [15] | > 10
NOMO-1 | > 10
SHI-1 [18] | > 10
THP-1 | > 10

cell viability [%], HL-60 [24]
Settings | 0.001 µM | 0.01 µM | 0.1 µM | 1 µM | 10 µM
co-treatment: AZD3965 100 nM | 99.99 ± 0.4 | 98.614 ± 0.083 | 101 ± 12 | 96.8 ± 2.8 | 98.7 ± 3
co-treatment: DMSO vehicle | 103 ± 3.8 | 101 ± 1.2 | 104 ± 5.4 | 100 ± 0.66 | 102.2 ± 0.98
co-treatment: GSK2194069 100 nM | 105 ± 7.6 | 97.3 ± 4.8 | 101 ± 17 | 112 ± 3 | 100 ± 1.6
co-treatment: pictilisib 100 nM | 103 ± 6 | 101 ± 3.5 | 113 ± 24 | 113 ± 6.1 | 107 ± 15

Cc1nc(-c2ccc(OCC(C)C)c(C#N)c2)sc1C(=O)O [Febuxostat]
Settings | area under dose-response curve, co-treatment: AZD3965 100 nM | area under dose-response curve, co-treatment: DMSO vehicle | area under dose-response curve, co-treatment: GSK2194069 100 nM | area under dose-response curve, co-treatment: pictilisib 100 nM | cell viability, 1 nM [%] | cell viability, 10 nM [%] | cell viability, 100 nM [%] | cell viability, 1000 nM [%] | cell viability, 10000 nM [%]
BV-173 [7] | – | – | – | – | 103 | 101 | 79.9 | 99.7 | 82.6
HEL [5] | – | – | – | – | 97 | 97.8 | 106 | 105 | 84.5
HL-60 [9] | – | – | – | – | 103 | 85.2 | 114 | 91.3 | 99.3
HL-60 [12] | 0.0351 | < 0.0301 | < 0.0301 | 0.0462 | – | – | – | – | –
K-562 [4] | – | – | – | – | 100 | 91.3 | 84.2 | 113 | 87.7
KCL-22 [2] | – | – | – | – | 92.5 | 103 | 98 | 104 | 80.1
KG-1 [8] | – | – | – | – | 102 | 97.5 | 103 | 94.6 | 90.4
LAMA-84 [10] | – | – | – | – | 102 | 95.7 | 92.4 | 105 | 101
ML-2 [1] | – | – | – | – | 94 | 96 | 100 | 90.2 | 86.8
MV4-11 [11] | – | – | – | – | 88.2 | 104 | 99.1 | 105 | 116
Mono-Mac-6 [3] | – | – | – | – | 91.7 | 102 | 99 | 92.9 | 92.7
SHI-1 [6] | – | – | – | – | 87 | 97.7 | 99 | 99.4 | 93.8

Settings | IC50 (cell viability) [µM]
BV-173 [19] | > 10
HEL [17] | > 10
HL-60 [21] | > 10
K-562 [16] | > 10
KCL-22 [14] | > 10
KG-1 [20] | > 10
KU-812 | > 10
LAMA-84 [22] | > 10
ML-2 [13] | > 10
MOLM-13 | > 10
MV4-11 [23] | > 10
Mono-Mac-6 [15] | > 10
NOMO-1 | > 10
SHI-1 [18] | > 10
THP-1 | > 10

cell viability [%], HL-60 [24]
Settings | 0.001 µM | 0.01 µM | 0.1 µM | 1 µM | 10 µM
co-treatment: AZD3965 100 nM | 96.8 ± 1 | 104 ± 1.1 | 104 ± 1.4 | 98.3 ± 3 | 98.16 ± 0.3
co-treatment: DMSO vehicle | 96.5 ± 3.3 | 99.3 ± 3.9 | 103 ± 5.2 | 95.6 ± 1.8 | 104.8 ± 0.8
co-treatment: GSK2194069 100 nM | 99.9 ± 2.2 | 93.2 ± 8 | 94.47 ± 0.83 | 95.2 ± 2.4 | 98.7 ± 3.6
co-treatment: pictilisib 100 nM | 98.2 ± 2.1 | 100 ± 2.6 | 107 ± 7.7 | 95.4 ± 1.8 | 96 ± 4.1

— the supplement of paper PMC8671470
